Article PMC9794833, “Ligand recognition and activation of neuromedin U receptor 2” (Nature Communications, 2022)
Where “and” joins values, the source holds several entries; their conditions need not be identical. Equal values may be shown once. Read-outs that look alike come from different tables or passages of the source. Where no end group is shown, it is not given here.

Experiments:
Type in all cases: cell-based
NMU2 E127A [1] = molecular target: T1, NMU2 E127A (Homo sapiens, UniProt Q9GZQ4, E127A); test: IP accumulation assay, NMU2 mutant E127A; conditions: IP accumulation
T1 construct: HA signal peptide (N); expressed in transfected cells; host or cells: HEK 293F
Description: (§1) NMU2 constructs of WT and mutants were constructed into PTT5 vector (Invitrogen), as mentioned above. HEK 293F cells were transiently transfected with WT or mutants with total of 2000 ng plasmid DNA using transfection reagent (PEI MAX 2000, Polysciences) and cultivated at 37 °C with 5% CO2. Cells were collected after 48-h transfection. IP accumulation was tested by IP-One Gq assay kit (Cisbio Bioassays, 62IPAPEJ) following the instruction manual. In general, cells were resuspended with 1× HBSS buffer containing 20 mM LiCl (stimulation buffer) and seeded into the white 384-well microplates (Proxi Plate^TM-384 Plus, PerkinElmer) with a density of 20,000 per well. Cells were preincubated with 10^−5 M R-PSOP (provided by Boehringer Ingelheim company, Germany) and gradient concentration from 10^−4 to 10^−11 M of NMU-25 or gradient concentration 10^−4 to 10^−11 M of NMU-25 alone in stimulation buffer at 37 °C for 90 min. The cryptate-labeled anti-IP1 monoclonal antibody and d2-labeled IP1 were diluted with lysis & detection buffer (1:20) and added to each well by 3 μl, respectively. The plates were incubated at room temperature for 60 minutes and then read in a Synerg^TM H1 microplate reader (BioTek) with excitation at 330 nm and emission at 620 and 665 nm. The IP1 production was calculated by a standard dose–response curve and analyzed by GraphPad Prism 8.0.

NMU2 H285A = molecular target: T2, NMU2 H285A (Homo sapiens, UniProt Q9GZQ4, H285A); test: IP accumulation assay, NMU2 mutant H285A; conditions: IP accumulation
T2 construct: HA signal peptide (N); expressed in transfected cells; host or cells: HEK 293F, transient transfection, PTT5 vector
Description: as §1

NMU2 F316A = molecular target: T3, NMU2 F316A (Homo sapiens, UniProt Q9GZQ4, F316A); test: TRUPATH assay, NMU2 mutant F316A
T3 construct: HA signal peptide (N); expressed in transfected cells; host or cells: HEK 293F
Description: (§2) The plasmids of Gαi1, Gβ3, and Gγ9 used for the TRUPATH assay were purchased from Addgene (TRUPATH Kit, #1000000163). NMU2 constructs of WT and mutants were constructed into a PTT5 vector (Invitrogen) with an N-terminal HA signal peptide followed by a Flag tag. HEK 293F cells were transiently transfected with WT or mutants of NMU2, Gαi1, Gβ3, and Gγ9 at an […] ratio of 4:1:1:1 with a total of 3500 ng plasmid DNA using a transfection reagent (PEI MAX 2000, Polysciences) and cultivated at 37 °C with 5 % CO2. Cells were collected after 48-h transfection. The expression level of the receptor was measured by incubating 10 μl cells with 15 μl TBS buffer supplemented with 4% bovine serum albumin, 20% (v/v) viability staining solution7-AAD (Invitrogen, Cat#00-6993-50), and ANTI-FLAG M2-FITC antibody (Sigma, F4049; 1:100 diluted by TBS) at 4 °C for 20 min. After incubation, 175 μl TBS buffer was added, and the fluorescence signal on the cell surface was detected by an FCM (flow cytometry) reader (Millipore). The cells were diluted with 1× HBSS (Hank’s balanced salt solution) balanced buffer supplemented with 25 mM HEPES, pH 7.4, and seeded onto the 96-well opaque cell culture plates (Beyotime) at a density of 18,000 cells per well by 60 μl. Freshly prepared 50 μM coelenterazine 400a (Nanolight Technologies) was added into the well by 10 μl. After a 5 min equilibration time in the darkness, plates were then read in a Synerg^TM H1 microplate reader (BioTek) with excitation at 395 nm and emission at 410 and 515 nm by serially three times. Then, 30 μl of 3.3× agonists were added into the wells with a gradient final concentration from 10^−4–10^−13 M. Plates were read immediately again by serially five times. Data were processed and analyzed following the method in the literature by using GraphPad Prism 8.0.

NMU2 E102A [2] = molecular target: T4, NMU2 E102A (Homo sapiens, UniProt Q9GZQ4, E102A); test: IP accumulation assay, NMU2 mutant E102A; conditions: IP accumulation
T4 construct: HA signal peptide (N); expressed in transfected cells; host or cells: HEK 293F
Description: as §1

NMU2 F284A = molecular target: T5, NMU2 F284A (Homo sapiens, UniProt Q9GZQ4, F284A); test: TRUPATH assay, NMU2 mutant F284A
T5 construct: HA signal peptide (N); expressed in transfected cells; host or cells: HEK 293F
Description: as §2

NMU2 E105A = molecular target: T6, NMU2 E105A (Homo sapiens, UniProt Q9GZQ4, E105A); test: TRUPATH assay, NMU2 mutant E105A
T6 construct: HA signal peptide (N); expressed in transfected cells; host or cells: HEK 293F
Description: as §2

NMU2 H43E = molecular target: T7, NMU2 H43E (Homo sapiens, UniProt Q9GZQ4, H43E); test: TRUPATH assay, NMU2 mutant H43E; conditions: H43E
T7 construct: HA signal peptide (N); expressed in transfected cells; host or cells: HEK 293F
Description: as §2

NMU2 N306Q = molecular target: T8, NMU2 N306Q (Homo sapiens, UniProt Q9GZQ4, N306Q); test: TRUPATH assay, NMU2 mutant N306Q
T8 construct: HA signal peptide (N); expressed in transfected cells; host or cells: HEK 293F
Description: as §2

NMU2 E127A [3] = molecular target: T1, NMU2 E127A; test: TRUPATH assay, NMU2 mutant E127A
Description: as §2, with “The cells were diluted with 1× HBSS (Hank’s balanced salt solution) balanced buffer supplemented with 25 mM HEPES, pH 7.4, and seeded onto the 96-well opaque cell culture plates (Beyotime) at a density of 18,000 cells per well by 60 μl. Freshly prepared 50 μM coelenterazine 400a (Nanolight Technologies) was added into the well by 10 μl.” left out, “Data were processed and analyzed following the method in the literature by using GraphPad Prism 8.0.” left out

NMU2 E102A [4] = molecular target: T4, NMU2 E102A; test: TRUPATH assay, NMU2 mutant E102A
Description: as §2, with “The cells were diluted with 1× HBSS (Hank’s balanced salt solution) balanced buffer supplemented with 25 mM HEPES, pH 7.4, and seeded onto the 96-well opaque cell culture plates (Beyotime) at a density of 18,000 cells per well by 60 μl. Freshly prepared 50 μM coelenterazine 400a (Nanolight Technologies) was added into the well by 10 μl.” left out, “Data were processed and analyzed following the method in the literature by using GraphPad Prism 8.0.” left out

NMU2 F224A = molecular target: T9, NMU2 F224A (Homo sapiens, UniProt Q9GZQ4, F224A); test: IP accumulation assay, NMU2 mutant F224A; conditions: IP accumulation
T9 construct: HA signal peptide (N); expressed in transfected cells; host or cells: HEK 293F, transient transfection, PTT5 vector
Description: as §1

[5] = read-out: pEC50±SEM, NmU-25 alone (converted)
[6] = read-out: pEC50 mean±SEM (converted)

T8 sequence (Q9GZQ4 whole entry N306Q): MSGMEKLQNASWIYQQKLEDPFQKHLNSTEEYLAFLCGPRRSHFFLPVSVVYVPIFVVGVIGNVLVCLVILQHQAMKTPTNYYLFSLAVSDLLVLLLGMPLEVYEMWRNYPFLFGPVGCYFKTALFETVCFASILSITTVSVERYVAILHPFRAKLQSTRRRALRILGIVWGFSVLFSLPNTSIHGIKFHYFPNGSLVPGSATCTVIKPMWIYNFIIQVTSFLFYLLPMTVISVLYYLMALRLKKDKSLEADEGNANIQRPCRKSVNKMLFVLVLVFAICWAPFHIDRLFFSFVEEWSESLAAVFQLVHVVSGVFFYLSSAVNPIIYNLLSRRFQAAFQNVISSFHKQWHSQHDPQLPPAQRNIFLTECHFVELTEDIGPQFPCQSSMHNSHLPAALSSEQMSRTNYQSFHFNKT
T3 sequence (Q9GZQ4 whole entry F316A): as the sequence (Q9GZQ4 whole entry N306Q) above, with Q306N, F316A counted along it
T4 sequence (Q9GZQ4 whole entry E102A): as the sequence (Q9GZQ4 whole entry N306Q) above, with E102A, Q306N counted along it
T5 sequence (Q9GZQ4 whole entry F284A): as the sequence (Q9GZQ4 whole entry N306Q) above, with F284A, Q306N counted along it
T1 sequence (Q9GZQ4 whole entry E127A): as the sequence (Q9GZQ4 whole entry N306Q) above, with E127A, Q306N counted along it
T6 sequence (Q9GZQ4 whole entry E105A): as the sequence (Q9GZQ4 whole entry N306Q) above, with E105A, Q306N counted along it
T7 sequence (Q9GZQ4 whole entry H43E): as the sequence (Q9GZQ4 whole entry N306Q) above, with H43E, Q306N counted along it
T9 sequence (Q9GZQ4 whole entry F224A): as the sequence (Q9GZQ4 whole entry N306Q) above, with F224A, Q306N counted along it
T2 sequence (Q9GZQ4 whole entry H285A): as the sequence (Q9GZQ4 whole entry N306Q) above, with H285A, Q306N counted along it

FRVDEEFQSPFASQSRGYFLFRPRN-NH2 [NmU-25]
EC50 (NMU2 E127A [1]; read-out: EC50, NmU-25 alone): 2140 nM
EC50 (NMU2 E127A [1]; [5]): 2140 nM
EC50 (NMU2 H285A; read-out: EC50, NmU-25 alone): 214 nM
EC50 (NMU2 H285A; [5]): 214 nM
EC50 ratio EC50(mutant)/EC50(WT) (NMU2 F316A): 39
G protein activation (TRUPATH), dose-response point (NMU2 F316A; Log [agonist] M -4): 89.6236 and 94.3509 and 81.0469 and 109.176
G protein activation (TRUPATH), dose-response point (NMU2 F316A; Log [agonist] M -5): 58.7715 and 110.343 and 86.8329 and 108.262
ΔpEC50 (from WT) (NMU2 F316A; individual experiments): -1.816 and -2.03 and -0.9173 and -1.079
EC50 (NMU2 F316A; read-out: EC50): 1340 nM
EC50 (NMU2 F316A; [6]): 1350 nM
EC50 (NMU2 E102A [2]; read-out: EC50, NmU-25 alone): 1700 nM
EC50 (NMU2 E102A [2]; [5]): 1700 nM
NmU-25–induced G protein activation of NMU2 (NMU2 F284A; Log [NmU-25] M -4, single replicates): 51.7867 and 36.0609 and 47.0977
NmU-25–induced G protein activation of NMU2 (NMU2 F284A; Log [NmU-25] M -5, single replicates): 36.8137 and 51.0666 and -1.433 and 5.137 and 15.0834
NmU-25–induced G protein activation of NMU2 (NMU2 F284A; Log [NmU-25] M -6, single replicates): -9.689 and 18.4963 and 20.7431 and 10.1867 and 6.446
NmU-25–induced G protein activation of NMU2 (NMU2 F284A; Log [NmU-25] M -7, single replicates): 16.596 and 4.555 and 25.4325 and 3.668 and -4.14
NmU-25–induced G protein activation of NMU2 (NMU2 F284A; Log [NmU-25] M -8, single replicates): 37.8124 and 33.3355 and -35.58 and 1.433 and 3.8556
NmU-25–induced G protein activation of NMU2 (NMU2 F284A; Log [NmU-25] M -9, single replicates): 18.5281 and 39.1515 and -3.291 and -33.2453 and 1.059
NmU-25–induced G protein activation of NMU2 (NMU2 F284A; Log [NmU-25] M -10, single replicates): -33.6452 and 11.984 and -41.6359 and -19.8948 and -2.9799
NmU-25–induced G protein activation of NMU2 (NMU2 F284A; Log [NmU-25] M -11, single replicates): -12.488 and 31.0606 and -18.1089 and -17.8891 and -12.403
G protein activation (TRUPATH), dose-response point (NMU2 F284A; Log [agonist] M -4): 51.7867 and 36.0609 and 47.0977
Span (window between Emax and minimal agonist response) (NMU2 E105A; E105A): 65±13 % of WT
Emax (NMU2 E105A; E105A vs WT, TRUPATH, read-out: decrease of Emax): 50%
G protein activation (TRUPATH), dose-response point (NMU2 E105A; E105A, Log [agonist] M -5): 55.6494 and 84.0025 and 53.5618 and 51.5031
EC50 (NMU2 E105A; E105A, earlier manuscript version quoted in peer review file, read-out: EC50): 1850 nM
reduction of agonist potency (NMU2 E105A; E105A, earlier manuscript version, peer review file): about 50 fold
ΔpEC50 (from WT) (NMU2 E105A; E105A, individual experiments): -1.22 and -1.57 and -1.279 and -1.924
EC50 (NMU2 E105A; E105A, read-out: EC50): 2480 nM
EC50 (NMU2 E105A; E105A, read-out: pEC50 mean±SEM (converted)): 2510 nM
EC50 ratio EC50(mutant)/EC50(WT) (NMU2 H43E): 11
Span (window between Emax and minimal agonist response) (NMU2 H43E): 135±8 % of WT
G protein activation (TRUPATH), dose-response point (NMU2 H43E; Log [agonist] M -4): 115.78 and 106.024 and 146.553 and 103.896
G protein activation (TRUPATH), dose-response point (NMU2 H43E; Log [agonist] M -6): 81.3432 and 53.8154 and 89.1078 and 81.5652
ΔpEC50 (from WT) (NMU2 H43E; individual experiments): -0.8963 and -0.6313 and -0.3476 and -0.5879
EC50 (NMU2 H43E; read-out: EC50): 360 nM
EC50 (NMU2 H43E; [6]): 363 nM
EC50 ratio EC50(mutant)/EC50(WT) (NMU2 N306Q): 14
Span (window between Emax and minimal agonist response) (NMU2 N306Q): 101±10 % of WT
G protein activation (TRUPATH), dose-response point (NMU2 N306Q; Log [agonist] M -4): 89.9582 and 52.9953 and 88.5352
G protein activation (TRUPATH), dose-response point (NMU2 N306Q; Log [agonist] M -5): 95.8006 and 91.3095 and 87.6434
ΔpEC50 (from WT) (NMU2 N306Q; individual experiments): -1.093 and -0.9304 and -1.223
EC50 (NMU2 N306Q; read-out: EC50): 466 nM
EC50 (NMU2 N306Q; [6]): 468 nM
G protein activation (TRUPATH), dose-response point (NMU2 E127A [3]; Log [agonist] M -4): 45.81 and 24.8732
potency (in words) (NMU2 E127A [3]; TRUPATH): complete loss of potency
potency (in words) (NMU2 E102A [4]): complete loss of potency
EC50 (NMU2 F224A; read-out: EC50, NmU-25 alone): 46 nM
EC50 (NMU2 F224A; [5]): 45.7 nM
